≈ marks a conversion by molar mass, not a printed value.
Key:
[1] = test system: M. orale CH19299; test: Anti-mycoplasmal activity (MIC), agar-dilution method; format: cell-based, Mycoplasma orale; settings: Metamycoplasma orale; agar dilution; M. orale CH19299; read-out: MIC
Method: (§1) The minimum growth inhibitory concentrations (MIC; μg/ml) of the test chemicals were measured by the agar-dilution method.
(§2) (1) Preparation of a mycoplasma suspension for inoculation
(§3) A stored frozen suspension of mycoplasma (0.2 to 0.3 ml) was inoculated in 2 to 3 ml of a preculture medium to be described later. It was serially diluted tenfold until the dilution ratio reached 10,000 times. These diluted solutions were cultivated at 37° C. for 2 to 7 days. A culture having the highest dilution ratio was selected from those cultures in which a color change of the media was noted as a result of mycoplasma growth. It was diluted to 100 times with the preculture medium to prepare a mycoplasma suspension for inoculation.
(§4) The following preculture media were used.
(§5) For other mycoplasma species, Chanock liquid medium (pH 6.8) containing 0.2% arginine was used.
(§6) (2) Preparation of agar plates containing the test chemicals
(§7) A 1,000 μg/ml aqueous solution of each test chemical was prepared (a difficultly-soluble chemical was dissolved by adding an equimolar amount of sodium hydroxide; the same applies hereinafter). The solution was used as a base solution and its twofold serial dilutions were prepared. The diluted solutions were pipetted on plastic petri dishes each in an amount of 1 ml. The Chanock agar medium (for Mycoplasma hyorhinis, 0.5% mucin was further added) described at page 9 of the above cited "Procedures for Isolation and Identification of Human, Animal and Plant Mycoplasmas" was heated and kept at 55° C. and put in an amount of 9 ml in each of the petri dishes containing the test chemicals and fully mixed with the test chemicals to prepare agar plates containing the test chemicals.
(§8) The mycoplasma suspension for inoculation prepared by the procedure described in section (1) was inoculated in an amount of about 3 microliters on each of the chemical-containing agar plates by means of a Cathra-replicator (3 mm pin). The plates on which Mycoplasma pneumoniae, Mycoplasma arginini, and Acholeplasma laidlawii and Mycoplasma hyorhinis were inoculated were tightly packed in a plastic bag together with the plasic petri dishes including water-immersed absorbent cotton. Mycoplasma pneumoniae was aerobically cultivated at 37° C. under highly humid conditions for 7 days; and Mycoplasma arginini and Acholeplasma laidlawii, for 2 days. The other mycoplasma species were cultivated anaerobically for 2 days by using a GasPak anaerobic system (BBL). After the cultivation, growth of mycoplasma were observed under an OLYMPUS microscope (20-100 X). The lowest concentration of the test chemical at which no growth of mycoplasma was noted is defined as MIC.

[2] = test system: M. salivarium PG20; test: as above; format: cell-based, Mycoplasma salivarium; settings: Metamycoplasma salivarium; agar dilution; M. salivarium PG20; read-out: MIC
Method: as §1, §2, §3, §4, §5, §6, §7, §8

[3] = test system: A. laidlawii PG8; test: as above; format: cell-based; settings: Acholeplasma laidlawii; agar dilution; A. laidlawii PG8; read-out: MIC
Method: as §1, §2, §3, §4
For Mycoplasma pneumoniae and Acholeplasma laidlawii, Chanock liquid medium containing 0.5% glucose (pH 7.8) [Library of Bacteriology 2, "Procedures for Isolation and Identification of Human, Animal and Plant Mycoplasmas", edited by Japanese Society for Bacteriology, page 8 (1982), Saikon Publishing Co.] was used.
as §6, §7, §8

[4] = test system: M. orale CH-19299; test: Anti-mycoplasmal activity (MIC, MMC), liquid dilution method; format: cell-based, Mycoplasma orale; settings: Metamycoplasma orale, liquid dilution, M. orale CH-19299; for MBC: CH19299, 120 h, read-out: MMC; for MIC: CH19299, read-out: MIC
Method: The minimum growth inhibitory concentration (MIC, μg/ml) and minimum mycoplasmacidal concentration (MMC, μg/ml) of test chemicals were measured by the liquid dilution method. The method of measuring MIC in this example differs from that used in Test Example 1.
A 1,000 μg/ml aqueous solution of a test chemical was prepared, and diluted to 5 times with a preculture medium. The dilution (200 μg/ml) was serially diluted twofold with the same medium in a 8-well reservoir. Fifty microliters of each diluted solution was distributed in the wells of a microplate. A well to which no test chemical was added was used as a control.
A mycoplasma suspension for inoculation prepared as in Test Example 1 was pipetted in an amount of 50 microliters to each of the wells. The microplates were sealed by a plate seal, shaken by a micromixer, and cultivated at 37° C. for 5 days. In the control to which no test chemical was added, color change of the medium by the growth of mycoplasma was observed after two days from the start of the cultivation. At this time, 3 microliters of the liquid culture was inoculated in drug-free Chanock agar medium by using a Cathra-replicator. The liquid culture and the agar medium were further cultivated at 37° C. for 3 days (anaerobically in the case of M. orale, and aerobically in the case of A. laidlawii and M. arginini). MIC and MMC were determined from the results of observation on the 5th day. MIC was defined as the lowest concentration of the test chemical at which growth of mycoplasma in the drug-containing liquid medium was not noted, and MMC, as that in the drug-free agar medium.

[5] = test system: mycoplasma; test: Activity of eliminating artificially contaminated mycoplasma from L-929 cells, Test Example 3 as a whole; format: cell-based; settings: for minimal effective concentration: Mycoplasma, L929, 96 h, L-929 cells, 4 days of treatment, read-out: effective concentration for eliminating mycoplasma contamination
Method: Animal cells, experimentally contaminated by mycoplasma, were cultivated for 4 days in a medium containing the test chemical and then sub-cultivated in a medium to which the test chemical was not added in order to determine whether the mycoplasma re-grew (re-contamination).
(1) Preparation of mycoplasma-contaminated cells
The mycoplasmas described in Table 3 were each pre-cultivated as in Test Example 1, (1). Two milliliters of the cultures were centifuged at 1,500×g for 30 minutes to separate the mycoplasmas. The isolated mycoplasmas were suspended in 2 ml of 10%-FBS-MEM medium (Eagle's minimum essential medium supplemented with 10% fetal bovine serum and 100 U/ml of penicillin G).
Separately, mouse fibroblast cells L-929 was suspended in 10%-FBS-MEM medium so that their density became 2.5×10^4 /ml. Four milliliters of the suspension was put in a petri dish (diameter 6 cm) for tissue culture including two circular cover glasses (diameter 1.8 cm), and then 1 ml of the mycoplasma suspension described above was added. The mixture was incubated at 37° C. in 5% CO2 humidified atmosphere for 3 days, and then sub-cultivated twice in order to obtain mycoplasma-contaminated cells. Mycoplasma-contamination was confirmed by the highly specific DNA-fluorochromic staining method (the above cited "Procedures for Isolation and identification of Human, Animal and Plant Mycoplasmas", pages 95-97).
(2) Experiment of eliminating mycoplasma contamination
Mycoplasma-contaminated L-929 cells were cultivated as described in the preceding section. A 1,000 μg/ml aqueous solution of a test chemical was prepared, and diluted to predetermined concentrations with Eagle's minimum essential medium. The diluted solutions were added to the culture medium. Two petri dishes were used for each concentration of the test chemical, and two circular cover glasses were put in one of them for examination of mycoplasma. No cover glass was put in the other petri dish, and it was used for subcultivation. Cultivation in the test chemical-containing medium was carried out for 4 days, and thereafter, the cultivation was continued for 3 weeks in a drug-free medium. Medium replacement was effected every 3 to 4 days, and subcultivation was carried out once a week. Examination for mycoplasma contamination was performed on the 4th and 7th days, and thereafter every week. The mycoplasmas were detected by the highly specific DNA-fluorochromic staining method.

Row | SMILES | MIC [1] [µg/mL] | MIC [2] [µg/mL] | MIC [3] [µg/mL] | MBC [4] [µg/mL] | MIC [4] [µg/mL] | minimal effective concentration ([5]; both species) [µg/mL] | activity of eliminating mycoplasma contamination ([5]; in words) | effective concentration relative to compound A ([5]; in words) | elimination of mycoplasma and re-growth after removal ([5]; 12.5 μg/ml, 4 days, then drug removed, in words) | elimination of mycoplasma and re-growth after removal ([5]; 0.2 μg/ml, both species, in words)
1 | CC1CN(c2c(F)c(N)c3c(=O)c(C(=O)O)cn(C4CC4)c3c2F)CCN1 (stereo not drawn) [Compound 1] | 0.2 (≈ 0.529 µM) | 0.2 (≈ 0.529 µM) | 0.1 (≈ 0.264 µM) | 0.39 (≈ 1.03 µM) | 0.39 (≈ 1.03 µM) | 0.39 | also showed the activity of eliminating mycoplasma contamination | twice that of compound A | – | –
2 | CN(C)c1ccc(O)c2c1C[C@H]1C[C@H]3[C@H](N(C)C)C(O)=C(C(N)=O)C(=O)[C@@]3(O)C(O)=C1C2=O [Compound 3, minocycline] | 0.1 (≈ 0.219 µM) | 0.1 (≈ 0.219 µM) | 0.2 (≈ 0.437 µM) | 25 (≈ 54.6 µM) | 0.39 (≈ 0.852 µM) | – | – | – | the cells were mycoplasma-negative after 4 days of cultivation, but when the chemical was removed thereafter, re-growth of mycoplasma was observed | –
3 | NCC1CN(c2c(F)c(N)c3c(=O)c(C(=O)O)cn(C4CC4)c3c2F)CCO1 (stereo not drawn) [Compound A, 5-amino-7-(2-aminomethylmorpholino)-1-cyclopropyl-6,8-difluoro-1,4-dihydro-4-oxoquinoline-3-carboxylic acid] | 0.05 (≈ 0.127 µM) | 0.1 (≈ 0.254 µM) | 0.0125 (≈ 0.0317 µM) | 0.05 (≈ 0.127 µM) | 0.05 (≈ 0.127 µM) | 0.2 | – | – | – | gave a mycoplasma negative in 4 days from the start of cultivation, and when thereafter subcultivation was performed in the absence of the compound A, no re-growth of mycoplasmas were noted
